Entries after “also recorded” stand apart in the source; their conditions may differ. Starred links: 1 amine or outer side, 2 acyl side, 3 side chain; linkers in the order of their positions; H or OH if unused. Non-standard residues stand in square brackets, D forms with d. Residues, ends and D or L forms follow the SMILES beside them. Groups on a side chain read outwards from the residue. No end group written: not given here. *: point of attachment. miniPEG = miniature polyethylene glycol spacer (mPEG); C18 diacid = O=C(O)CCCCCCCCCCCCCCCCC(=O)*; γGlu = O=C(O)[C@H](CCC(=O)[*:2])N[*:1]; Palmitoyl = CCCCCCCCCCCCCCCC(=O)*; pGlu = O=C1CC[C@@H](C(=O)O)N1
Assays:
mice [1] = assay: Blood glucose levels in mice subcutaneously injected with GLP-1 antagonist; type: in vivo; conditions: s.c. 10, 30, 100, 300 nmol/kg, measured at 24, 48, 72 hrs, FIG. 8
Excerpt: over time, where X=C18-diacid and O=Lys(C18-diacid).

GLP-1R [2] = target: T1, GLP-1R (Homo sapiens, UniProt P43220); conditions: after site-specific acylation of the human-based antagonist; cited from earlier work
Target sequence in this assay (P43220 24-463, species assumed): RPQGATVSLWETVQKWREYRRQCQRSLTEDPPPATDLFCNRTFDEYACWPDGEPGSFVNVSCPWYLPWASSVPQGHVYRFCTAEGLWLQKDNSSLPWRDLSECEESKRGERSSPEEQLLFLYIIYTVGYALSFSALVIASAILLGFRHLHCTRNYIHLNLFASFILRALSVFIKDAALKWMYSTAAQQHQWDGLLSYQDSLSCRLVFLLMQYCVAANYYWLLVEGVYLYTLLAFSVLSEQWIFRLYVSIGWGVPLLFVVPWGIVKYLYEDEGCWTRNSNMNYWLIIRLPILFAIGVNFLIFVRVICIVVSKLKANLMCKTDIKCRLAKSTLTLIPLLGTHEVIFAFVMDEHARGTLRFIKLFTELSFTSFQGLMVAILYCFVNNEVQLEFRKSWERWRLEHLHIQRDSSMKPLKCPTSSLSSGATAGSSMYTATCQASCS

GIP receptor = target: T2, GIP receptor (Homo sapiens, UniProt P48546); conditions: GLP-1 receptor versus GIP receptor; cited from earlier work
T2 sequence (P48546 22-466): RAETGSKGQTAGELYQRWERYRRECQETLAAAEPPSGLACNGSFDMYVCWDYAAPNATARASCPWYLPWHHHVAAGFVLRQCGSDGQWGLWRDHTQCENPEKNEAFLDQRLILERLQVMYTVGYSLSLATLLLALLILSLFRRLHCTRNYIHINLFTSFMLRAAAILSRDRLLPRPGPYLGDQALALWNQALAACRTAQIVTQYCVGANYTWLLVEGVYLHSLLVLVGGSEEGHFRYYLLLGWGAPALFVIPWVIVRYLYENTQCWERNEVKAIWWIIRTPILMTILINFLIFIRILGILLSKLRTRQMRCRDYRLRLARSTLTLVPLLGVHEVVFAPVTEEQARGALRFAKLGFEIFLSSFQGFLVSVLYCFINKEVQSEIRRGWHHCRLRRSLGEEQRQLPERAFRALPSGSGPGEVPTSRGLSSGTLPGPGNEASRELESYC

mice [3] = assay: Glucose tolerance test after subcutaneous GLP-1 antagonist; type: in vivo; conditions: s.c. antagonist, 4 h later i.p. glucose 1.5 g/kg, FIGS. 2A, 2B
Protocol: FIGS. 2A & 2B present data from a glucose tolerance test wherein mice are subcutaneously administered the GLP-1 antagonist followed four hours later by intraperitoneal administration of glucose (1.5 g glucose per kg body weight).
C57Bl/6 mice were obtained from Jackson Laboratories. Mice were single-or group-housed on a 12:12 h light-dark cycle at 22° C. with free access to food and water. All studies were approved by and performed according to the guidelines of the Institutional Animal Care and Use Committee of the University of Cincinnati.
For the determination of glucose tolerance, mice were subjected to 6 h of fasting and injected intraperitoneally with glucose. Injections consisted of 1.5 g glucose per kg body weight (25% w/v D-glucose (Sigma) in 0.9% w/v saline). Tail blood glucose levels (mg dL-1) were measured using a hand-held glucometer (FreeStyle Freedom Lite) before 0 min and at 15, 30, 60, and 120 min after injection.
Mice received a subcutaneous injection of peptide (in PBS) either 1, 4, 8, 24, 48, 72, or 120 at varying doses before being challenged with an IP injection of dipeptidyl peptidase-IV-protected Ex-4 (0.65 nmol kg-1). A GTT was performed fifteen minutes after the GLP-1 injection. Tail blood glucose values were obtained as described above.

GLP-1R [4] = target: T1, GLP-1R; assay: IC50 nM; set-up: host or cells: HEK 293; conditions: read-out: IC50
Protocol: Table printed on a drawing sheet, Fig. 10
Head of the field: IC50 nM
Where the first naming reader finds the target: description_of_the_figure: as measured in an in vitro assay using GLP-1R over-expressing 293 cells
Target sequence in this assay (P43220 24-463 limits assumed): as the sequence (P43220 24-463, species assumed) above

human GLP-1 receptor = human GLP-1 receptor (human, UniProt P43220 24-463); assay: cell-based or functional assay

In the case of “X-DVSSYLEEQAVREFIAWLVRGGPSSGAPPPSO-acid [MBX 1407]”, the glucose blood levels (mice [1]) is reported as “dose dependent response”.

For “DVSSYLEEQAVREFIAWLVKGGPSSGAPPPSK[C16]-OH (DVSSYLEEQAVREFIAWLVKGGPSSGAPPPSK(Palmitoyl)-OH) [SEQ ID NO: 3]”, the “potency as a GLP-1 receptor antagonist” value (GLP-1R [2]) is listed as “increased potency” and the “selectivity relative to the GIP receptor” value (GIP receptor) is listed as 10 fold.

With “DVSRYLEEQAVREFIEWLVRGGPSSGAPPPSK[miniPEG-γE-C16]-OH (DVSRYLEEQAVREFIEWLVRGGPSSGAPPPSK([miniPEG-γGlu-Palmitoyl])-OH) [SEQ ID NO: 16]” the “GLP-1 antagonist activity in glucose tolerance test” value (mice [3]) was “full antagonist; also recorded: much higher potency than the GLP-1 antagonist Ex-9-40”.

`CC[C@H](C)[C@H](NC(=O)[C@H](Cc1ccccc1)NC(=O)[C@H](CCC(=O)O)NC(=O)[C@H](CCCNC(=N)N)NC(=O)[C@@H](NC(=O)[C@H](C)NC(=O)[C@H](CCC(N)=O)NC(=O)[C@H](CCC(=O)O)NC(=O)[C@H](CCC(=O)O)NC(=O)[C@H](CC(C)C)NC(=O)[C@H](Cc1ccc(O)cc1)NC(=O)[C@H](CO)NC(=O)[C@H](CO)NC(=O)[C@@H](NC(=O)[C@H](CC(=O)O)NC(=O)[C@@H]1CCC(=O)N1)C(C)C)C(C)C)C(=O)N[C@@H](C)C(=O)N[C@@H](Cc1c[nH]c2ccccc12)C(=O)N[C@@H](CC(C)C)C(=O)N[C@H](C(=O)N[C@@H](CCCNC(=N)N)C(=O)NCC(=O)NCC(=O)N1CCC[C@H]1C(=O)N[C@@H](CO)C(=O)N[C@@H](CO)C(=O)NCC(=O)N[C@@H](C)C(=O)N1CCC[C@H]1C(=O)N1CCC[C@H]1C(=O)N1CCC[C@H]1C(=O)N[C@@H](CO)C(=O)N[C@@H](CCCCNC(=O)CCCCCCCCCCCCCCCCC(=O)O)C(=O)O)C(C)C` [compound 1418, Z DVSSYLEEQAVREFIAWLVRGGPSSGAPPPSO-acid] ([pGlu]DVSSYLEEQAVREFIAWLVRGGPSSGAPPPSK(C18 diacid)-OH) showed an IC50 (GLP-1R [4]) of 67 nM.

In the case of XGDLSKQMEEEAVRLFIEWLKNGGPSSGAPPPS (dK at position 7 acylated with Peg2-gE(C16); C-terminal amide (-NH2)) [Ex9-39amide, dK7 (PEG2-γE(C16)), G8], the “IC50 (nM): block of cAMP induction by GLP-1 (0.05 nM), luciferase reporter in HEK 293 cells with human GLP-1 receptor” value (human GLP-1 receptor) is reported as 6.2 nM.

— patent US20240058422A1, “GLUCAGON-LIKE PEPTIDE-1 RECEPTOR ANTAGONISTS” (INDIANA UNIVERSITY RESEARCH AND TECHNOLOGY CORPORATION, priority 2022, published 2024)
